Data taken from US11298346B2, “Methods for treatment of fibrotic diseases” (Beta Cat Pharmaceuticals, Inc., priority 2017, dated 2022).
Values joined by “and” are separate entries in the source; they are usually repeats but may differ in a detail not shown here. Identical values can stand only once.

What was measured:
DD180 cells = test: Fibroblast populated collagen lattice (FPCL) contraction assay; assay type: cell-based, human; details: ≤25 pM
Procedure: (§1) Tegavivint (BC-2059) powder was reconstituted it in 100% dimethyl sulfoxide (DMSO) to a 10_mM stock solution. The stock was diluted to 100 nM in serum-free media (α minimal essential medium, αMEM), and further diluted to 100 pM in serum-free αMEM immediately before the analyses were performed. Serial dilutions from 100 pM down to 0.78 pM were assessed in various assays. 0.001% DMSO in αMEM was used as the vehicle control, and αMEM alone was used as an untreated control, in a subset of analyses.
Fibroblast populated collagen lattice assays were performed on primary palmar fascia fibroblasts derived from the fibrotic palmar fascia of one patient with Dupuytren's disease (DD180) using the protocol described in Raykha, C., Crawford, J., Gan, B. S., Fu, P., Bach, L. A., and O'Gorman, D. B. (2013) IGF-II and IGFBP-6 regulate cellular contractility and proliferation in Dupuytren's disease. Biochimica et biophysica acta. 1832, 1511-9.

[1] = system: bleomycin-induced pulmonary fibrosis; test: Bleomycin-induced pulmonary fibrosis mouse model, intranasal Tegavivint; assay type: in vivo, C57BL/6 wild-type mice; details: 5 mg/kg biw intranasal
Procedure: (§2) In another pilot study, Tegavivint at 5 mg/kg was administered biw (twice a week) via intranasal delivery to C57BL/6 wild-type mice. Bleomycin was administered to the mice intratracheally on day 0 to induce pulmonary fibrosis, and Tegavivint or the vehicle (5% dextrose in water) was administered on days 6, 10, 14, 18 and 21. The purpose of this experiment was to evaluate the effect of topically-administered Tegavivint on bleomycin-induced pulmonary fibrosis in vivo.

[2] = system: cell lines derived from chromic myeloid leukemia (CML) patients and cell lines and primary cells derived from myeloproliferative neoplasm (MPN) patients; details: background statement; cited from earlier work
[3] = system: primary palmar fascia fibroblasts derived from the fibrotic palmar fascia (DD249 cells); test: Alamar Blue proliferation/viability assay, DD249 cells; assay type: cell-based, human; details: for proliferation/viability: DD249 cells, 48 and 72 hrs relative to 24 hrs
Procedure: as §1
(§3) Proliferation/viability analyses were performed in triplicate on primary palmar fascia fibroblasts derived from the fibrotic palmar fascia (DD cells) of 2 patients with Dupuytren's disease (DD249, DD77) and syngeneic primary palmar fascia fibroblasts derived from visibly non-fibrotic palmar fascia (PF cells) from these patients (PF249, PF77). Cells were cultured on type-1 collagen coated 96 well trays for these analyses to better replicate substrate interactions in vivo. Two independent assays were used for these analyses: Alamar Blue assays for analyses up to 72 hrs in cells derive from 1 patient, and Water Soluble Tetrazolium-(WST-1) assays for analyses up to 24 hrs in cells derived from the other patients. Significant effects of treatment on proliferation over time were detected by ANOVA repeated measures.

[4] = Lung concentration after nebulizing delivery of Tegavivint formulations (whole body exposure); assay type: in vivo, bcat-Ex3 mice; details: mouse lung, individual animals, listed as BC2059
Procedure: Tegavivint particles suspended in Poloxamer 188/sorbitol at a concentration of 25 mg/mL were used. These formulations were applied to the mice in the form of aerosols, through the method of whole body exposure. The mice were placed inside a plastic box. This box was sealed and connected by one of its sides to the outlet of the nebulizer device, and on the other side to a system of closed water. The whole procedure was carried out inside the fume hood of the animal room.
For the first experiment, the nebulizer kit of SATER LABS was used. This device uses the jet system. The device was primed with 5 ml of the drug, i.e. 125 mg of tegavivint (BC2059), for each group of 5 mice, and then the device was connected to the power source for nebulization. The energy was supplied by a DeVilbiss compressor model 646, which allows 5-7 pounds of pressure, and a flow of 6-8 liters per minute. For the second experiment, the device used was the Altera, ultrasonic nebulizer.
For the two experiments, 10 male bcat-Ex3 mice were used for each set. These mice were separated into 2 groups of 5 mice each. The first group received the drug daily, for 5 consecutive days. The second group received the drug only once (the fifth day). On day 5 all mice were sacrificed, lung harvested, and samples were stored at −30 degrees, in two labeled nylon bags, each containing the 5 samples from each group.

[5] = system: syngeneic primary palmar fascia fibroblasts derived from visibly non-fibrotic palmar fascia (PF249 cells); test: Alamar Blue proliferation/viability assay, PF249 cells; assay type: cell-based, human; details: for proliferation/viability: PF249 cells, 48 and 72 hrs relative to 24 hrs
Procedure: as §1, §3

[6] = system: bleomycin-induced pulmonary fibrosis; test: Bleomycin-induced pulmonary fibrosis mouse model, intravenous Tegavivint; assay type: in vivo, C57BL/6 wild-type mice; details: 50 mg/kg biw tail-vein injection
Procedure: as §2, with “In a” for “In another”, “at 50” for “at 5”, “via tail-vein injection” for “via intranasal delivery”, “of systemically-administered” for “of topically-administered”

[7] = Topical Tegavivint alone (no bleomycin)
[8] = Aerosol jet nebulizer (Sater Labs), 1 day (single-dose on Day 5)
[9] = Aerosol jet nebulizer (Sater Labs), 5 day (5 daily doses on Days 1-5)
[10] = Nebulizer ultrasonic eRapid (Altera), 1 day (single-dose on Day 5)
[11] = Nebulizer ultrasonic eRapid (Altera), 5 day (5 daily doses on Days 1-5)
[12] = Tegavivint alone (no bleomycin)

For Tegavivint, the effects on contractility (DD180 cells) was “did not identify any consistent effects”, the pulmonary compliance ([1]; Tegavivint after bleomycin, compared to bleomycin only) was “showed a trend towards increased compliance” and the soluble collagen content ([1]; Tegavivint after bleomycin, compared with bleomycin-only) was “significantly decreased the collagen level”. For the same substance, the pulmonary compliance [1, 7] was “caused an increase in compliance”, the soluble collagen content [1, 7] was “showed a slight increase in collagen” and the “apoptosis and growth inhibition” value [2] was “undergo apoptosis and growth inhibition”. The proliferation/viability ([3]; 25 pM) was “viable and able to proliferate to significantly greater cell numbers”, the proliferation/viability ([3]; 50 pM) was “unable to proliferate” and the “therapeutic window concentration (proliferation of fibrosis-derived but not syngeneic palmar fascia derived cells inhibited)” value ([3]; DD versus PF cells, preliminary analyses) was “approximately 50 pM”. The cytotoxic concentrations ([3]; fibrosis-derived fibroblasts, both proliferation/viability assays and visual inspection) was over 100 pM, the “effects on cell proliferation/viability” value ([3]; ≤25 pM) was “did not identify any consistent effects” and the “Lung Concentration (ng/g)” value [4, 8] was 5040 ng/g and 16800 ng/g and 56800 ng/g and 5200 ng/g and 17100 ng/g. For the same substance, the “Lung Concentration (ng/mL)” value [4, 8] was 1260 ng/mL and 4190 ng/mL and 14200 ng/mL and 1300 ng/mL and 4270 ng/mL, the “Lung Concentration (ng/g)” value [4, 9] was 18600 ng/g and 6600 ng/g and 14500 ng/g and 12300 ng/g and 14200 ng/g and the “Lung Concentration (ng/mL)” value [4, 9] was 4640 ng/mL and 1650 ng/mL and 3620 ng/mL and 3080 ng/mL and 3550 ng/mL. For the same substance, the “Lung Concentration (ng/g)” value [4, 10] was 11400 ng/g and 11600 ng/g and 34600 ng/g and 15100 ng/g and 2400 ng/g, the “Lung Concentration (ng/mL)” value [4, 10] was 2840 ng/mL and 2910 ng/mL and 8660 ng/mL and 3780 ng/mL and 601 ng/mL and the “Lung Concentration (ng/g)” value [4, 11] was 19100 ng/g and 17200 ng/g and 18800 ng/g and 12200 ng/g and 22900 ng/g. For the same substance, the “Lung Concentration (ng/mL)” value [4, 11] was 4770 ng/mL and 4290 ng/mL and 4690 ng/mL and 3040 ng/mL and 5730 ng/mL, the proliferation/viability ([5]; 25 pM) was “proliferated to significantly greater cell numbers” and the proliferation/viability ([5]; 50 pM) was “proliferated to significantly greater cell numbers”. The cytotoxic concentrations ([5]; syngeneic fibroblasts from visibly unaffected palmar fascia, both proliferation/viability assays and visual inspection) was over 100 pM, the pulmonary compliance ([6]; Tegavivint after bleomycin) was “partially restored” and the “total soluble collagen content in lung tissue (Sircol assay)” value ([6]; Tegavivint after bleomycin) was “completely restored the collagen level to the same as vehicle-only controls”. For the same substance, the pulmonary compliance [6, 12] was “no effect” and the “total soluble collagen content in lung tissue (Sircol assay)” value [6, 12] was “no effect”.
